The results in this text go back to patent US20220073536A1 (Rigel Pharmaceuticals, Inc., priority 2003, published 2022).

Where a name gives a salt, the structure may show the parent alone.

The first assay concerns cultured human mast cells (CHMC). The assay can be described thus: CHMC low cell density IgE activation: tryptase assay. The class given is cell-based. The following applies: Homo sapiens, Mast cell, low cell density CHMC, IgE activation, tryptase release, 3 pt; read-out: LD Tryptase, CHMC, IgE, 3 pt. As for the experimental part: Inhibition of degranulation was measured at both low and high cell density by quantifying the release of the granule specific factors tryptase, histamine and hexosaminidase. Inhibition of release and/or synthesis of lipid mediators was assessed by measuring the release of leukotriene LTC4 and inhibition of release and/or synthesis of cytokines was monitored by quantifying TNF-α, IL-6 and IL-13. Tryptase and hexosaminidase were quantified using fluorogenic substrates as described in their respective examples. […] The protocols of the various assays are provided below.
Pellet CHMC cells (980 rpm, 10 min) and resuspend in pre-warmed MT. Add 65 ul of cells to each 96-well plate. Depending on the degranulation activity for each particular CHMC donor, load 1000-1500 cells/well. Mix four times followed by a 1 hr incubation at 37° C. […] Stimulate cells by adding 25 ul of 6× anti-IgE solution to the appropriate plates. Add 25 ul MT to un-stimulated control wells. Mix twice following addition of the anti-IgE. Incubate at 37° C. for 30 minutes. […] Spin plates at 1000 rpm for 10 min to pellet cells. Transfer 25 ul of supernatant to a 96-well black bottom plate and add 100 ul of freshly diluted tryptase substrate solution to each well. Incubate plates at room temperature for 30 min.
`COc1cc(Nc2nc(Nc3cc(C)c(O)c(Cl)c3)ncc2F)cc(C(F)(F)F)c1` [Compound 336, N2-(3-Chloro-4-hydroxy-5-methylphenyl)-5-fluoro-N4-(3-methoxy-5-trifluoromethylphenyl)-2,4-pyrimidinediamine]: the IC50 was < 10 µM.

Consider `COc1cc(Nc2nc(Nc3cc(Cl)cc(Cl)c3)ncc2F)cc(C(F)(F)F)c1` [Compound 337], for which the IC50 is < 10 µM.

On to `COc1cc(Nc2nc(Nc3cc(C)c(Cl)c(C)c3)ncc2F)cc(C(F)(F)F)c1` [Compound 339], for which the IC50 is > 10 µM.

`COc1cc(Nc2ncc(F)c(Nc3cc(OC)cc(OC)c3)n2)cc(OC)c1` [Compound 340]: the IC50 is < 10 µM.

The same assay, now with this note: Homo sapiens, Mast cell, low cell density CHMC, IgE activation, tryptase release, 8 pt; read-out: LD Tryptase, CHMC, IgE, 8 pt.
For the molecule `COc1cc(Nc2ncc(F)c(Nc3cc(OC)cc(OC)c3)n2)cc(OC)c1` [Compound 340], the IC50 is < 10 µM.

Staying with this assay, now noted: Homo sapiens, Mast cell, low cell density CHMC, IgE activation, tryptase, 3 pt; read-out: LD Tryptase, CHMC, IgE, 3 pt.
On to `Cc1cc(C)cc(Nc2ncc(F)c(Nc3cc(C)cc(C)c3)n2)c1` [Compound 341, N2,N4-Bis (3,5-dimethylphenyl)-5-fluoro-2,4-pyrimidinediamine], for which the IC50 is < 10 µM.

In the case of `CC1(C)Oc2ccc(Nc3nc(Nc4ccc5ccn(C(N)=O)c5c4)ncc3F)cc2NC1=O` [Compound 348], the IC50 is > 10 µM.

On to `COc1cc(Nc2nc(Nc3cc(C)c(Cl)c(C)c3)ncc2F)cc(OC)c1` [Compound 349], for which the IC50 is < 10 µM.

As to `COc1cc(Nc2nc(Nc3cc(Cl)cc(Cl)c3)ncc2F)cc(OC)c1` [Compound 352], the IC50 was < 10 µM.

Take `COc1cc(Nc2nc(Nc3cc(C)cc(C(F)(F)F)c3)ncc2F)cc(OC)c1` [Compound 353]: the IC50 was < 10 µM.

Take `COc1cc(Nc2nc(Nc3cc(OC)cc(C(F)(F)F)c3)ncc2F)cc(OC)c1` [Compound 355]: the IC50 was < 10 µM.

In the case of `COc1cc(Nc2ncc(F)c(Nc3ccc4c(c3)OCO4)n2)cc(C(F)(F)F)c1` [Compound 373, 5-Fluoro-N4-(3,4-methylenedioxyphenyl)-N2-(3-methoxy-5-trifluoromethylphenyl)-2,4-pyrimidinediamine], the IC50 was < 10 µM.

Regarding `Cc1cc(Nc2ncc(F)c(Nc3ccc4c(c3)OCO4)n2)cc(C(F)(F)F)c1` [Compound 374], the IC50 was > 10 µM.

With `Fc1cnc(Nc2cc(Cl)cc(Cl)c2)nc1Nc1ccc2c(c1)OCO2` [Compound 375], the IC50 is < 10 µM.

Turning to `COc1ccc(Nc2nc(Nc3cc(OC)c(Cl)cc3OC)ncc2F)cc1Cl` [Compound 377], the IC50 was < 10 µM.

Regarding `COc1cc(Nc2ncc(F)c(Nc3ccc4c(c3)OCCO4)n2)c(OC)cc1Cl` [Compound 379], the IC50 was < 10 µM.

`COc1cc(Nc2nc(Nc3cc(OC)c(Cl)cc3OC)ncc2F)cc(OC)c1` [Compound 380]: the IC50 is < 10 µM.

For `COC(=O)c1cc2cc(Nc3ncc(F)c(Nc4cc(OC)cc(OC)c4)n3)ccc2o1` [Compound 381], the IC50 is < 10 µM.

On to `COc1cc(Nc2nc(Nc3cccc4cc(C(=O)O)[nH]c34)ncc2F)cc(OC)c1` [Compound 383], for which the IC50 is < 10 µM.

The same assay, now with this note: Homo sapiens, Mast cell, low cell density CHMC, IgE activation, tryptase, 8 pt; read-out: LD Tryptase, CHMC, IgE, 8 pt.
With `CC1(C)Oc2ccc(Nc3nc(Nc4cc(CO)cc(CO)c4)ncc3F)cc2NC1=O` [Compound 344, N2-[3,5-Bis (hydoxymethylene)phenyl]-N4-(2,2-dimethyl-3-oxo-4H-benz[1,4]oxazin-6-yl)-5-fluoro-2,4-pyrimidinediamine], the IC50 was < 10 µM.

As to `COc1cc(Nc2nc(Nc3ccc4c(c3)OCCO4)ncc2F)cc(OC)c1` [Compound 351, N4-(3,5-Dimethoxyphenyl)-N2-(3,4-ethylenedioxyphenyl)-5-fluoro-2,4-pyrimidinediamine], the IC50 was < 10 µM.

For `Fc1cnc(Nc2cc(Cl)cc(Cl)c2)nc1Nc1ccc2c(c1)OCCO2` [Compound 354], the IC50 was < 10 µM.

Take `COc1cc(Nc2ncc(F)c(Nc3ccc4c(c3)OCCO4)n2)cc(C(F)(F)F)c1` [Compound 356, N4-(3,4-Ethylenedioxyphenyl)-5-fluoro-N2-(3-methoxy-5-trifluoromethylphenyl)-2,4-pyrimidinediamine]: the IC50 was < 10 µM.

In the case of `COc1cc(Cl)cc(Nc2ncc(F)c(Nc3ccc4c(c3)NC(=O)C(C)(C)O4)n2)c1` [Compound 369, N2-(3-Chloro-5-methoxyphenyl)-N4-(2,2-dimethyl-3-oxo-4H-benz[1,4]oxazin-6-yl)-5-fluoro-2,4-pyrimidinediamine], the IC50 was < 10 µM.

Regarding `COc1cc(Cl)cc(Nc2ncc(F)c(Nc3ccc4c(c3)OCCO4)n2)c1` [Compound 370], the IC50 was < 10 µM.

Turning to `CNC(=O)c1cc2cccc(Nc3ncc(F)c(Nc4ccc5c(c4)OCO5)n3)c2[nH]1` [Compound 371, 5-Fluoro-N4-(3,4-methylenedioxyphenyl)-N2-[2-(N-methylamino)carbonylindol-7-yl]-2,4-pyrimidinediamine], the IC50 is < 10 µM.

As to `COc1cc(Nc2ncc(F)c(Nc3ccc4c(c3)OCO4)n2)cc(OC)c1` [Compound 372, N2-(3,5-Dimethoxyphenyl)-5-fluoro-N4-(3,4-methylenedioxyphenyl)-2,4-pyrimidinediamine], the IC50 is < 10 µM.

Consider `Cc1cc(C)cc(Nc2ncc(F)c(Nc3ccc4c(c3)OCO4)n2)c1` [Compound 376], for which the IC50 is < 10 µM.

On to `COc1ccc(Nc2ncc(F)c(Nc3ccc4c(c3)NC(=O)C(C)(C)O4)n2)cc1Cl` [Compound 378, N2-(3-Chloro-4-methoxyphenyl)-N4-(2,2-dimethyl-3-oxo-4H-benz[1,4]oxazin-6-yl)-5-fluoro-2,4-pyrimidinediamine p-Toluene Sulfonic Acid Salt], for which the IC50 was < 10 µM.

In the case of `COC(=O)c1cc2cc(Nc3ncc(F)c(Nc4cc(OC)cc(OC)c4)n3)ccc2o1` [Compound 381], the IC50 was < 10 µM.

Still in this assay, the particulars now being: low cell density CHMC, IgE activation, tryptase, 3 pt; read-out: LD Tryptase, CHMC, IgE, 3 pt.
Regarding `CNC(=O)n1ccc2ccc(Nc3ncc(F)c(Nc4ccc5c(c4)NC(=O)C(C)(C)O5)n3)cc21` [Compound 347, N4-(2,2-Dimethyl-3-oxo-4H-benz[1,4]oxazin-6-yl)-N2-[1-(N-methylaminocarbony)lindol-6-yl)-5-fluoro-2,4-pyrimidinediamine], the IC50 is < 10 µM.

For the molecule `COc1cc(Nc2ncc(F)c(Nc3ccc4c(c3)OC(F)(F)C(F)(F)O4)n2)cc(OC)c1` [Compound 357], the IC50 was < 10 µM.

In the case of `Cc1cc(Nc2ncc(F)c(Nc3ccc4c(c3)OC(F)(F)C(F)(F)O4)n2)cc(C)c1Cl` [Compound 358], the IC50 is > 10 µM.

In the case of `Fc1cnc(Nc2cc(Cl)cc(Cl)c2)nc1Nc1ccc2c(c1)OC(F)(F)C(F)(F)O2` [Compound 360], the IC50 was > 10 µM.

For the molecule `COc1cc(Nc2ncc(F)c(Nc3ccc4c(c3)OC(F)(F)C(F)(F)O4)n2)cc(C(F)(F)F)c1` [Compound 361], the IC50 is < 10 µM.

In the case of `Cc1cc(C)cc(Nc2ncc(F)c(Nc3ccc4c(c3)OC(F)(F)C(F)(F)O4)n2)c1` [Compound 362, N2-(3,5-Dimethyphenyl)-5-fluoro-N4-[3,4-(tetrafluoroethylenedioxy)phenyl]-2,4-pyrimidinediamine], the IC50 was < 10 µM.

`Cc1cc(Nc2ncc(F)c(Nc3ccc4c(c3)OC(F)(F)C(F)(F)O4)n2)cc(C(F)(F)F)c1` [Compound 366, 5-Fluoro-N2-(3-methyl-5-trifluoromethyl)-N4-[3,4-(tetrafluoroethylenedioxy)phenyl]-2,4-pyrimidinediamine]: the IC50 was < 10 µM.

Turning to `Fc1cnc(Nc2ccc3c(c2)OCCO3)nc1Nc1ccc2c(c1)OC(F)(F)C(F)(F)O2` [Compound 367], the IC50 was < 10 µM.

The same assay, now with this note: low cell density CHMC, IgE activation, tryptase, 8 pt; read-out: LD Tryptase, CHMC, IgE, 8 pt.
With `COc1cc(Nc2ncc(F)c(Nc3ccc4c(c3)OC(F)(F)C(F)(F)O4)n2)cc(OC)c1` [Compound 357], the IC50 is < 10 µM.

Take `OCc1cc(CO)cc(Nc2ncc(F)c(Nc3ccc4c(c3)OC(F)(F)C(F)(F)O4)n2)c1` [Compound 359]: the IC50 was < 10 µM.

Take `Cc1cc(C)cc(Nc2ncc(F)c(Nc3ccc4c(c3)OC(F)(F)C(F)(F)O4)n2)c1` [Compound 362, N2-(3,5-Dimethyphenyl)-5-fluoro-N4-[3,4-(tetrafluoroethylenedioxy)phenyl]-2,4-pyrimidinediamine]: the IC50 is > 10 µM.

As to `Fc1cnc(Nc2ccc3c(c2)OCCO3)nc1Nc1ccc2c(c1)OC(F)(F)C(F)(F)O2` [Compound 367], the IC50 is < 10 µM.

On to `COC(=O)C(C)(C)Oc1ccc(Nc2nc(Nc3cc(C)cc(C)c3)ncc2F)cc1Cl` [Compound 402, N4-[3-Chloro-4-(methoxycarbonyl-1,1-dimethylmethyleneoxy)phenyl]-N2-(3,5-dimethylphenyl)-5-fluoro-2,4-pyrimidinediamine], for which the IC50 is < 10 µM.

In the case of `COC(=O)C(C)(C)Oc1ccc(Nc2nc(Nc3cc(C)cc(C)c3)ncc2F)cc1` [Compound 403, N2-(3,5-Dimethylphenyl)-N4-[4-(methoxycarbonyl-1,1-dimethylmethyleneoxy)phenyl]-5-fluoro-2,4-pyrimidinediamine], the IC50 is < 10 µM.

For the molecule `CCOC(=O)C(C)(C)Oc1ccc(Nc2nc(Cl)ncc2F)cc1Cl` [Compound 407, 2-Chloro-N4-[3-chloro-4-(ethoxycarbonyl-1,1-dimethylmethyleneoxy)phenyl]-5-fluoro-4-pyrimidineamine], the IC50 is < 10 µM.

Take `CCOC(=O)C(C)(C)Oc1ccc(Nc2nc(Nc3cc(OC)cc(OC)c3)ncc2F)cc1Cl` [Compound 408, N4-[3-Chloro-4-(ethoxycarbonyl-1,1-dimethylmethyleneoxy)phenyl]-N2-(3,5-dimethoxyphenyl)-5-fluoro-2,4-pyrimidinediamine]: the IC50 is < 10 µM.
